Data published in patent US7756643B2, “Method for determining the biological effect and/or activity of at least one drug, chemical substances and/or pharmaceutical composition based on their effect on the methylation status of DNA” (Epigenomics AG, priority 2001, dated 2010).
Where no end group is shown, it is not given here.

Key:
CpGs of the Fas-L gene = test: Peptide library screening: methylation status of CpGs in a T-cell line; format: cell-based; settings: 10 days, versus untreated control
Method: A peptide library was prepared in a 96-well culture plate which contained overlapping peptide fragments derived from the peptide sequence of human serum albumine (HSA). As positive controls, each of vasoactive intestinal peptide (VIP) and pituitary adenylate cyclase-activating polypeptide (PACAP) was added in one of the wells.
A T-cell line (example?) was incubated together with the peptides and VIP or PACAP. After 10 days, the cells of the VIP/PACAP and HSA peptide treated as well as untreated control cell line cultures were collected by centrifugation and the chromosomal DNA was prepared using QIAamp DNA Mini Kit as recommended by the manufacturer (Quiagen, Hilden, Germany).
Subsequently, the chromosomal DNAs were bisulphite treated as published, for example, according to Olek et al. 6 different multiplex PCR reactions were performed on the 3 bisulphite DNA samples (untreated control, HSA and VIP/PACAP treated samples) using Cy5-labelled primer. The products of the methylation specific PCR reactions performed on the same DNA samples were combined. These complex mixtures of 64 PCR products derived from the three DNA samples were comparatively hybridised onto oligo micro arrays representing 256 CpG and the methylation statuses of the CpGs were analysed according to a method described in WO 99/28498.

T cells = settings: through down-regulation of Fas ligand (FasL); cited from earlier work

## pituitary adenylate cyclase-activating polypeptide (HSDGIFTDSYSRYRKQMAVKKYLAAVLGKRYKQRVKNK; ends and bridges not checked; UniProt P18509 132-169, looked up) [PACAP, positive control peptide]
CpGs of the Fas-L gene
  methylation status of CpGs of the Fas-L gene: significantly changed
T cells
  protection of T cells from activation-induced cell death: protect T cells from activation-induced cell death

## vasoactive intestinal peptide (HSDAVFTDNYTRLRKQMAVKKYLNSILN; ends and bridges not checked; UniProt P01282 125-152, looked up) [VIP, positive control peptide]
CpGs of the Fas-L gene
  methylation status of CpGs of the Fas-L gene: significantly changed
T cells
  protection of T cells from activation-induced cell death: protect T cells from activation-induced cell death
